Experimental data taken from paper PMC11126048, “Peptide Toxins from Antarctica: The Nemertean Predator and Scavenger Parborlasia corrugatus (McIntosh, 1876)” (Toxins, 2024).
Like-named read-outs stand apart in the source and are kept apart here.

Legend:
[1] = previous experiments; read-out: EC50 liposome leakage, previous experiments; cited from earlier work
Experimental: The ability of the Parborlasia peptides to permeabilize reconstituted E. coli phospholipid membranes was tested in a liposome-based assay. The peptides display the typical steep logarithmic AMP leakage kinetic (Figure 8). […] The 3624 Da peptide was tested in a single experiment series in this assay. The 26-residue long bee venom peptide melittin was used as a reference ...

[2] = Bacterial membrane permeabilization assay (carboxyfluorescein leakage from liposomes); assay type: biochemical, Escherichia coli; conditions: E. coli polar lipid extract liposomes, 10 µM lipid, Tris 10 mM pH 7.4, 45 min, carboxyfluorescein fluorescence; EC50 fixed at 50% of maximum leakage (Triton X-100); mean of four experiments; read-out: EC50 liposome leakage
Experimental: Liposomes were manufactured and permeabilization-assayed as described previously. Briefly, lipid films of Escherichia coli polar lipid extract were deposited on round-bottom flask walls. The lipid films were re-suspended at 55 °C in an aqueous solution of 100 mM of 5(6)-carboxyfluorescein in Tris buffer. The suspensions were subjected to repeated extrusion through a 100 nm polycarbonate membrane in order to reduce multilamellar structures and polydispersity. Un-trapped carboxyfluorescein was removed by gel filtration. Membrane permeability was measured by monitoring carboxyfluorescein efflux from the liposomes to the external low-concentration environment, resulting in a loss of self-quenching and an increased fluorescence signal. The 96-well plates were prepared with a 2-fold serial dilution of the peptides in Tris buffer (10 mM, pH 7.4), and controls without peptides (background) and 0.16% Triton X-100 (maximum leakage). The plates were administered a liposome solution to a final lipid concentration of 10 μM in 200 µL. The effects of each peptide concentration on the liposomes were monitored for 45 min, at which point the initial leakage had largely subsided. The results shown represent the mean from four experiments (one for 3624 Da) with standard deviations and are expressed as the percent of total leakage generated with Triton X-100 and subtraction of the baseline value. […]

Substance: Melittin
- EC50 [1]: 400 nM
- EC50 [2]: 300 nM
